The subject of the assay is A549. Nature of the assay: Antiproliferative activity against human A549 cells after 48 hrs by CCK-8 assay. The class given is functional, cell-based. The conditions noted are these: A549, 48 h. For orientation: Tetrazolium dyes change colour on reduction, which living cells bring about.

Molecules are shown by their SMILES.

In general, IC50 refers to the concentration that inhibits the measured activity by half. A higher IC50 goes with a need for much substance. For the molecule `C(#CC1NCCc2cc(OCc3ccccc3)c(OCc3ccccc3)cc21)c1ccccc1` (configuration not stated), half-maximal inhibition (IC50) required 22.4 µM. The result for `COc1cc2c(cc1OC)C(C#Cc1ccccc1)NCC2` (configuration not stated) reads 40.1 µM.
